Reference: patent publication US20260165988A1, “PHARMACEUTICAL COMPOSITION FOR PREVENTING OR TREATING HEARING LOSS COMPRISING AMMONIUM LACTATE AS ACTIVE INGREDIENT” (KOREA UNIVERSITY RESEARCH AND BUSINESS FOUNDATION, priority 2022, published 2026)

Test system: hair cells in the lateral line of zebrafish
Test: Analysis of hair cells in zebrafish larvae: protection against gentamicin-induced hair cell damage
Type: in vivo
Method: Zebrafish larvae (Wild type, Brn3c: EGFP, etc.) were cultured in the breeding room of our research institute. Each larva was cultured in embryo medium (15 mM NaCl, 0.5 mM KCl, 1 mM CaCl2, 1 mM MgSO4, 0.15 mM KH2PO4, 0.05 mM […], and 0.7 mM NaHCO3).
Gentamicin, an ototoxicity-inducing substance, was administered to zebrafish 5 days after fertilization, and the concentration of […] (LC 50) that induces 50% damage to hair cells in the lateral line of zebrafish as well as the time were determined. In the study results, 50 μM gentamicin was chosen since approximately 50% of the hair cells were damaged when administered for 1 hour. The effect was observed when 10 μM, 100 μM, 500 μM, and 1000 μM ammonium lactate were co-administered with 50 μM gentamicin for 1 hour.
There were four sites in hair cells of zebrafish, including orbits (SO1 and SO2), ear (O1), and larynx (OC1), and the number of hair cells was analyzed using a microscope (fluorescence microscope, confocal microscope, etc.). The effects of candidate substances capable of suppressing damage to hair cells caused by gentamicin were compared and analyzed by administering the candidate substances to zebrafish larvae at different concentrations.
To verify the protective effect of ammonium lactate on hair cells in zebrafish, ammonium lactate and gentamicin were co-administered to zebrafish, and the viability of hair cells was compared with that of the control group.

Compound | viability of hair cells (trend) (10 μM, 100 μM, 500 μM and 1000 μM ammonium lactate co-administered with 50 μM gentamicin) | increase in the viability of hair cells (100 μM ammonium lactate + 50 μM gentamicin) | number of hair cells (100 μM ammonium lactate co-administered with 50 μM gentamicin for 1 hour, gentamicin only 26) | increase in the viability of hair cells (500 μM ammonium lactate + 50 μM gentamicin) | number of hair cells (500 μM ammonium lactate co-administered with 50 μM gentamicin for 1 hour, gentamicin only 26) | increase in the viability of hair cells (1000 μM ammonium lactate + 50 μM gentamicin) | number of hair cells (1000 μM ammonium lactate co-administered with 50 μM gentamicin for 1 hour, gentamicin only 26) | protective effect on hair cells (conclusion) (zebrafish, gentamicin-induced damage) | hair cells damaged (50 μM gentamicin administered for 1 hour, zebrafish 5 days after fertilization) | decrease in the viability of hair cells (50 μM gentamicin only vs untreated control) | number of hair cells (50 μM gentamicin only, no ammonium lactate, untreated control 53)
CC(O)C(=O)O.N (centres unmarked) [ammonium lactate] | increased in a concentration-dependent manner | approximately 10% | 28 | approximately 10% | 29 | ≥ 60% | 42 | has a protective effect on hair cells | – | – | –
gentamicin [reference compound] | – | – | – | – | – | – | – | – | approximately 50% | 50% | 26
